Read-outs that look alike come from different tables or passages of the source. One block for each compound: values may come before it. Where a SMILES comes first, the peptide text is derived from it.
Legend:
[1] = tested on: chorionic post-proline peptidase; assay: Competitive inhibition of mammalian GnRH degradation by chorionic post-proline peptidase (enzymatic activity assay, RIA of remaining substrate); conditions: for relative potency of inhibition of chorionic post-proline peptidase activity compared to that for GnRH: substrate mammalian GnRH, GnRH = 1
Method: (§1) Using the incubation system developed for chorionic post-proline peptidase activity, the degradation of GnRH was tested. Each of these analogs (SEQ ID NO: 2, SEQ ID NO: 4 and SEQ ID NO: 7) were first studied for their ability to act as a competitive inhibitor of GnRH for chorionic post-proline peptidase activity using the enzymatic activity assay as described previously (103). […] The reaction was stopped by heating at 85° C. for 10 minutes. […] The product formed, i.e. the N-terminal nonapeptide of GnRH, was calculated by subtraction, and its inverse plotted against the inverse of the original substrate concentrations to determine the Ks of the competition. The Ki was determined by plotting the inverse of the product that formed versus the inhibitor used.

[2] = tested on: MCF-7 breast cancer cells; assay: MCF-7 breast cancer cell culture viability, Alamar Blue assay; type: cell-based, human; conditions: for inhibition of cell proliferation (cell viability, Alamar Blue): MCF-7, 24 hours of incubation, dose-response; for inhibition of cell proliferation: MCF-7, 48 hours of incubation
Method: This system allows for replicated extended activity studies.
The bio-potency studies were done with a MCF-7 breast cancer cell culture system and the cell viability as a measure of survival was assessed using the Alamar Blue assay. The percent difference in the Alamar Blue optical density (OD) readings at 570 and 600 nm in the treated and untreated controls was determined. […] A dose-response study in quadruplicate cultures was performed. Cell viability was assessed after 24 and 48 hours of incubation with the activity agent.

[3] = tested on: GnRH receptors on the cells of MCF-7 breast cancer cells; assay: Competitive binding of I^125-D-Arg(6)-Chicken II GnRH-aza-Gly(10)-amide to MCF-7 breast cancer cells; set-up: species or system human; conditions: for competitive inhibition of I^125-D-Arg(6)-Chicken II GnRH-aza-Gly(10)-amide binding (rank of potency): MCF-7 cells, 24 hours at room temperature; for receptor potency (in words): receptor test not given
Method: GnRH receptors on the cells of MCF-7 breast cancer cells were studied. The cells were plated on 96 wells and grown to confluency in base medium (M3D:Fetal Bovine Serum [9:1]). Prior to the experiment the cells were down shifted to M3D:Fetal Bovine Serum [99:1] and then to serum-free medium. […] Addition of enzyme inhibitors of the endogenous post-proline peptidase and other peptidases were used as well as agents for receptor stabilization. Receptor bound label was separated by centrifugation. The binding of the non-mammalian GnRH analog and its ability to regulate the tumor cells' GnRH receptor was compared. […] This was followed by Buserilin. […] This indicated the high innate affinity of this isoform of GnRH for the tumor GnRH receptor. It is believed by Applicants that the same or similar results could be obtained using other non-mammalian GnRH isomers or analogs with similar amino acid structure as Chicken II GnRH such as but not limited to Salmon GnRH, Herring GnRH, Catfish GnRH, or Dogfish GnRH.

[4] = tested on: chorionic post-proline peptidase
Method: as §1

[5] = tested on: MCF-7 breast cancer cells; assay: Degradation of GnRH and analogs by tumor tissue cells, with or without peptidase inhibitors; type: in vitro ADME, human
From the text: Post-Proline Peptidase Stability Studies: As mentioned earlier, the post-proline peptidase is important in actively degrading peptides that contain a proline residue. GnRH is such a peptide. Initially the enzymatic activity of the tumor cell was studied. Tumor tissue cells and their spent media were studied for enzyme activity. In particular, examination was made for the degradation of GnRH both with and without specific post-proline and endopeptidase activity inhibitors to determine the specificity of the tumor enzymatic activity.
Chorionic post-proline peptidase is a peptidase with high specificity for the degradation of GnRH at the proline-glycine bond, but can also degrade other GnRH species containing this bond.

Compound: CCNC(=O)[C@@H]1CCCN1C(=O)[C@H](CCCNC(=N)N)NC(=O)[C@H](CC(C)C)NC(=O)[C@@H](COC(C)(C)C)NC(=O)[C@H](Cc1ccc(O)cc1)NC(=O)[C@H](CO)NC(=O)[C@H](Cc1c[nH]c2ccccc12)NC(=O)[C@H](Cc1cnc[nH]1)NC(=O)[C@@H]1CCC(=O)N1 [Buserilin]
degradation by chorionic post-proline peptidase (in words) [1]: competitively inhibited the degradation of mammalian GnRH | inhibition of cell proliferation (cell viability, Alamar Blue) [2]: totally inactive

degradation by chorionic post-proline peptidase (in words) [1]: resistant to degradation
Compound: N=C(N)NCCC[C@@H](NC(=O)[C@H](Cc1c[nH]cn1)NC(=O)[C@H](CO)NC(=O)[C@H](Cc1c[nH]c2ccccc12)NC(=O)[C@H](Cc1c[nH]cn1)NC(=O)[C@@H]1CCC(=O)N1)C(=O)N[C@@H](Cc1c[nH]c2ccccc12)C(=O)N[C@@H](Cc1ccc(O)cc1)C(=O)N1CCC[C@H]1C(=O)NNC(N)=O [D-Arg(6)-Chicken II GnRH-aza-Gly(10)-amide] (HELM PEPTIDE1{[Glp].H.W.S.H.[dR].W.Y.P.[O=C(NN[*:1])[*:2]].[am]}$$$$V2.0)
binding of I^125-labelled analog to MCF-7 breast cancer cells ([3]; 24 hours of incubation, no exogenous GnRH): specifically bound the MCF-7 breast cancer cells | competitive inhibition of I^125-D-Arg(6)-Chicken II GnRH-aza-Gly(10)-amide binding (rank of potency) [3]: greatest potency | receptor potency (in words) [3]: increased receptor potency | inhibition of cell proliferation (cell viability, Alamar Blue) [2]: positive dose-related activity | inhibition of cell proliferation at 10^−5 M ([2]; MCF-7, 24 hours, 10^−5 M): markedly active | inhibition of cell proliferation [2]: equally as potent as at 24 hours

Compound: Im-btl-D-His(6)-GnRH-ethylamide
receptor potency (in words) [3]: reduced receptor potency

Compound: des-Gly(10)-D-Leu(6)-GnRH ethylamide
degradation by chorionic post-proline peptidase (in words) [1]: competitively inhibited the degradation of mammalian GnRH

relative potency of inhibition of chorionic post-proline peptidase activity compared to that for GnRH [1]: 1.5
Compound: OH-Pro(9)-GnRH

Compound: Mammalian GnRH: mammalian gonadotropin releasing hormone decapeptide
competitive inhibition of I^125-D-Arg(6)-Chicken II GnRH-aza-Gly(10)-amide binding (rank of potency) [3]: weakest competitor | degradation by chorionic post-proline peptidase (in words) [4]: actively degraded | degradation of mammalian GnRH by the tumor tissue cells ([5]; after overnight incubation): ~100% | inhibition of cell proliferation [2]: totally ineffective

Compound: CCNC(=O)[C@@H]1CCCN1C(=O)[C@H](CCCNC(=N)N)NC(=O)[C@H](CC(C)C)NC(=O)[C@@H](CC(C)C)NC(=O)[C@H](Cc1ccc(O)cc1)NC(=O)[C@H](CO)NC(=O)[C@H](Cc1c[nH]c2ccccc12)NC(=O)[C@H](Cc1c[nH]cn1)NC(=O)[C@@H]1CCC(=O)N1 [Leuprolide]
inhibition of cell proliferation (cell viability, Alamar Blue) [2]: totally inactive

Compound: des-Gly(10)-GnRH ethylamide
degradation by chorionic post-proline peptidase (in words) [1]: competitively inhibited the degradation of mammalian GnRH

Compound: des-Gly(10), D-Trp(6)-GnRH ethylamide
degradation by chorionic post-proline peptidase (in words) [1]: competitively inhibited the degradation of mammalian GnRH

degradation by chorionic post-proline peptidase (in words) [1]: degraded with reduced activity | potency as competitor for chorionic post-proline peptidase compared to GnRH (in words) [1]: three fold less potent than GnRH | relative potency of inhibition of chorionic post-proline peptidase activity compared to that for GnRH [1]: 0.6
Compound: Antide

Compound: CC[C@H](C)[C@H](N)C1=N[C@H](C(=O)N[C@@H](CC(C)C)C(=O)N[C@H](CCC(=O)O)C(=O)N[C@H](C(=O)N[C@H]2CCCCNC(=O)[C@H](CC(N)=O)NC(=O)[C@@H](CC(=O)O)NC(=O)[C@H](Cc3cnc[nH]3)NC(=O)[C@@H](Cc3ccccc3)NC(=O)[C@H]([C@@H](C)CC)NC(=O)[C@@H](CCCN)NC2=O)[C@@H](C)CC)CS1 [bacitracin] (HELM PEPTIDE1{[CC[C@H](C)[C@H](N)C1=N[C@H](C(=O)[*:2])CS1].L.[dE].I.K.[NCCC[C@@H](N[*:1])C(=O)[*:2]].I.[dF].H.[dD].N}$PEPTIDE1,PEPTIDE1,5:R3-11:R2$$$V2.0)
inhibition of the degradation of mammalian GnRH in tumor cell extracts ([5]; specific inhibitors of post-proline peptidase): inhibited

— patent US7834141B1, “Non-mammalian GnRH analogs and uses thereof in tumor cell growth regulation and cancer therapy” (priority 2000, dated 2010)
